Data published in PubChem BioAssay (NCI).
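All cell lines were grown in 96-well plates and treated with compound for 48 hours. Here, GI50 denotes the concentration required for 50% inhibition of growth. TGI: concentration producing complete growth inhibition.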

test system: A549 NSCLC; assay: inhibition of tumour cell growth, NCI panel, 48 h

SMILES	GI50 [µM]	TGI [µM]
Cc1nnc(Nc2ccc(NC(=O)Nc3ccc(Cl)cc3)cc2)c2ccccc12	3.24	8.59
CC(=O)ON1CCCC(P(=O)(OCCSC(=O)C(C)(C)C)OCCSC(=O)C(C)(C)C)C1=O (stereo not given)	1.52	> 100
C=CCC1(c2ccc(OC)cc2)C=CC(=O)CC1 (stereo not given)	–	> 100
COC(=O)[C@]12CC[C@@H](C)[C@H](C)[C@@H]1C1=CC[C@@H]3[C@@]4(C)C[C@@H](O)[C@H](O)[C@@](C)(CO)C4=CC[C@@]3(C)[C@]1(C)CC2	17.3	35.4
COc1ccc(C(=O)Nc2ccc(O)c(=O)cc2)cc1	–	> 100
Cc1nc(N)sc1N=Nc1ccccc1Br	–	> 100
NS(=O)(=O)c1ccc(N=Nc2c(O)c(C(=O)O)cc3ccccc23)cc1	–	> 100
Cc1c(N(C)C)ccc2c(=O)c3cccc(CC(=O)O)c3oc12	–	> 100
C/C(CC(=O)Nc1ccc(C)c(C)c1)=N\N(c1ccccc1)c1ccccc1	–	> 100
COC(=O)/C(=N\NC(N)=S)C(C(=O)OC)C(=O)C(=O)Nc1ccc(C)cc1 (stereo not given)	–	> 100
CC(NCCC(c1ccccc1)c1ccccc1)c1ccccc1 (stereo not given)	3.33	12.8
C/C(N=NC(=S)N1CC2CCC(CC2)C1)=C1\C=CC=CN1O	–	> 68.8
O=C(Nc1ccc(Br)cc1F)c1cc(Cl)ccc1O	2.78	> 100
S=c1[nH]c(=S)c2cc3ccccc3nc2[nH]1	> 100	> 100
CCC[CH2][Sn]([CH2]CCC)([O]C(=O)c1ccc(OC)c(OC)c1OC)[O][Sn]([CH2]CCC)([CH2]CCC)[O]C(=O)c1ccc(OC)c(OC)c1OC	2.27	5.42
CN1CCC(=O)/C(=C/c2ccccc2)C1	–	34.3

test system: CCRF-CEM leukemia; assay: inhibition of tumour cell growth, NCI panel, 48 h

SMILES	GI50 [µM]	TGI [µM]
Cc1nnc(Nc2ccc(NC(=O)Nc3ccc(Cl)cc3)cc2)c2ccccc12	2.38	5.99
CC(=O)ON1CCCC(P(=O)(OCCSC(=O)C(C)(C)C)OCCSC(=O)C(C)(C)C)C1=O (stereo not given)	0.283	67.4
C=CCC1(c2ccc(OC)cc2)C=CC(=O)CC1 (stereo not given)	–	> 100
COC(=O)[C@]12CC[C@@H](C)[C@H](C)[C@@H]1C1=CC[C@@H]3[C@@]4(C)C[C@@H](O)[C@H](O)[C@@](C)(CO)C4=CC[C@@]3(C)[C@]1(C)CC2	18.2	37.1
COc1ccc(C(=O)Nc2ccc(O)c(=O)cc2)cc1	–	72.1
Cc1nc(N)sc1N=Nc1ccccc1Br	–	> 100
NS(=O)(=O)c1ccc(N=Nc2c(O)c(C(=O)O)cc3ccccc23)cc1	–	> 100
Cc1c(N(C)C)ccc2c(=O)c3cccc(CC(=O)O)c3oc12	–	> 100
C/C(CC(=O)Nc1ccc(C)c(C)c1)=N\N(c1ccccc1)c1ccccc1	–	64.4
COC(=O)/C(=N\NC(N)=S)C(C(=O)OC)C(=O)C(=O)Nc1ccc(C)cc1 (stereo not given)	–	> 100
CC(NCCC(c1ccccc1)c1ccccc1)c1ccccc1 (stereo not given)	2.38	8.73
C/C(N=NC(=S)N1CC2CCC(CC2)C1)=C1\C=CC=CN1O	–	1.29
O=C(Nc1ccc(Br)cc1F)c1cc(Cl)ccc1O	2.08	7.63
S=c1[nH]c(=S)c2cc3ccccc3nc2[nH]1	5.21	> 100
CCC[CH2][Sn]([CH2]CCC)([O]C(=O)c1ccc(OC)c(OC)c1OC)[O][Sn]([CH2]CCC)([CH2]CCC)[O]C(=O)c1ccc(OC)c(OC)c1OC	0.0133	0.161
CN1CCC(=O)/C(=C/c2ccccc2)C1	–	50.7

test system: HCC-2998 colon; assay: inhibition of tumour cell growth, NCI panel, 48 h

SMILES	GI50 [µM]	TGI [µM]
Cc1nnc(Nc2ccc(NC(=O)Nc3ccc(Cl)cc3)cc2)c2ccccc12	2.84	8.09
CC(=O)ON1CCCC(P(=O)(OCCSC(=O)C(C)(C)C)OCCSC(=O)C(C)(C)C)C1=O (stereo not given)	1.42	12.4
C=CCC1(c2ccc(OC)cc2)C=CC(=O)CC1 (stereo not given)	–	> 100
COC(=O)[C@]12CC[C@@H](C)[C@H](C)[C@@H]1C1=CC[C@@H]3[C@@]4(C)C[C@@H](O)[C@H](O)[C@@](C)(CO)C4=CC[C@@]3(C)[C@]1(C)CC2	17.3	34.8
COc1ccc(C(=O)Nc2ccc(O)c(=O)cc2)cc1	–	> 100
Cc1nc(N)sc1N=Nc1ccccc1Br	–	21.7
NS(=O)(=O)c1ccc(N=Nc2c(O)c(C(=O)O)cc3ccccc23)cc1	–	> 100
Cc1c(N(C)C)ccc2c(=O)c3cccc(CC(=O)O)c3oc12	–	> 100
C/C(CC(=O)Nc1ccc(C)c(C)c1)=N\N(c1ccccc1)c1ccccc1	–	> 100
COC(=O)/C(=N\NC(N)=S)C(C(=O)OC)C(=O)C(=O)Nc1ccc(C)cc1 (stereo not given)	–	> 100
CC(NCCC(c1ccccc1)c1ccccc1)c1ccccc1 (stereo not given)	1.6	3.07
C/C(N=NC(=S)N1CC2CCC(CC2)C1)=C1\C=CC=CN1O	–	> 100
O=C(Nc1ccc(Br)cc1F)c1cc(Cl)ccc1O	2.79	12.7
S=c1[nH]c(=S)c2cc3ccccc3nc2[nH]1	92.3	> 100
CCC[CH2][Sn]([CH2]CCC)([O]C(=O)c1ccc(OC)c(OC)c1OC)[O][Sn]([CH2]CCC)([CH2]CCC)[O]C(=O)c1ccc(OC)c(OC)c1OC	0.341	1.5
CN1CCC(=O)/C(=C/c2ccccc2)C1	–	23.6

test system: KM12 colon; assay: inhibition of tumour cell growth, NCI panel, 48 h

SMILES	GI50 [µM]	TGI [µM]
Cc1nnc(Nc2ccc(NC(=O)Nc3ccc(Cl)cc3)cc2)c2ccccc12	1.99	4.53
CC(=O)ON1CCCC(P(=O)(OCCSC(=O)C(C)(C)C)OCCSC(=O)C(C)(C)C)C1=O (stereo not given)	1.21	13.8
C=CCC1(c2ccc(OC)cc2)C=CC(=O)CC1 (stereo not given)	–	> 100
COC(=O)[C@]12CC[C@@H](C)[C@H](C)[C@@H]1C1=CC[C@@H]3[C@@]4(C)C[C@@H](O)[C@H](O)[C@@](C)(CO)C4=CC[C@@]3(C)[C@]1(C)CC2	14.8	32.5
COc1ccc(C(=O)Nc2ccc(O)c(=O)cc2)cc1	–	> 100
Cc1nc(N)sc1N=Nc1ccccc1Br	–	51.1
NS(=O)(=O)c1ccc(N=Nc2c(O)c(C(=O)O)cc3ccccc23)cc1	–	> 100
Cc1c(N(C)C)ccc2c(=O)c3cccc(CC(=O)O)c3oc12	–	> 100
C/C(CC(=O)Nc1ccc(C)c(C)c1)=N\N(c1ccccc1)c1ccccc1	–	> 100
COC(=O)/C(=N\NC(N)=S)C(C(=O)OC)C(=O)C(=O)Nc1ccc(C)cc1 (stereo not given)	–	> 100
CC(NCCC(c1ccccc1)c1ccccc1)c1ccccc1 (stereo not given)	2.06	4.85
C/C(N=NC(=S)N1CC2CCC(CC2)C1)=C1\C=CC=CN1O	–	> 31.6
O=C(Nc1ccc(Br)cc1F)c1cc(Cl)ccc1O	2.14	5.43
S=c1[nH]c(=S)c2cc3ccccc3nc2[nH]1	29.5	> 100
CCC[CH2][Sn]([CH2]CCC)([O]C(=O)c1ccc(OC)c(OC)c1OC)[O][Sn]([CH2]CCC)([CH2]CCC)[O]C(=O)c1ccc(OC)c(OC)c1OC	0.859	2.31
CN1CCC(=O)/C(=C/c2ccccc2)C1	–	5.28

test system: M14 melanoma; assay: inhibition of tumour cell growth, NCI panel, 48 h

SMILES	GI50 [µM]	TGI [µM]
Cc1nnc(Nc2ccc(NC(=O)Nc3ccc(Cl)cc3)cc2)c2ccccc12	1.76	3.57
CC(=O)ON1CCCC(P(=O)(OCCSC(=O)C(C)(C)C)OCCSC(=O)C(C)(C)C)C1=O (stereo not given)	2.11	24.9
C=CCC1(c2ccc(OC)cc2)C=CC(=O)CC1 (stereo not given)	–	> 100
COC(=O)[C@]12CC[C@@H](C)[C@H](C)[C@@H]1C1=CC[C@@H]3[C@@]4(C)C[C@@H](O)[C@H](O)[C@@](C)(CO)C4=CC[C@@]3(C)[C@]1(C)CC2	17.5	33.6
COc1ccc(C(=O)Nc2ccc(O)c(=O)cc2)cc1	–	> 100
Cc1nc(N)sc1N=Nc1ccccc1Br	–	67.6
NS(=O)(=O)c1ccc(N=Nc2c(O)c(C(=O)O)cc3ccccc23)cc1	–	> 100
Cc1c(N(C)C)ccc2c(=O)c3cccc(CC(=O)O)c3oc12	–	> 100
C/C(CC(=O)Nc1ccc(C)c(C)c1)=N\N(c1ccccc1)c1ccccc1	–	> 100
COC(=O)/C(=N\NC(N)=S)C(C(=O)OC)C(=O)C(=O)Nc1ccc(C)cc1 (stereo not given)	–	> 100
CC(NCCC(c1ccccc1)c1ccccc1)c1ccccc1 (stereo not given)	1.73	3.31
C/C(N=NC(=S)N1CC2CCC(CC2)C1)=C1\C=CC=CN1O	–	20.3
O=C(Nc1ccc(Br)cc1F)c1cc(Cl)ccc1O	0.585	3.58
S=c1[nH]c(=S)c2cc3ccccc3nc2[nH]1	> 100	> 100
CCC[CH2][Sn]([CH2]CCC)([O]C(=O)c1ccc(OC)c(OC)c1OC)[O][Sn]([CH2]CCC)([CH2]CCC)[O]C(=O)c1ccc(OC)c(OC)c1OC	0.267	0.583
CN1CCC(=O)/C(=C/c2ccccc2)C1	–	26.7
